This note sets out measurements from article PMC8344022, “Small-molecule inhibitor of AF9/ENL-DOT1L/AF4/AFF4 interactions suppresses malignant gene expression and tumor growth” (Theranostics, 2021).

The target in assay [1] is p300 (Homo sapiens, UniProt Q09472). Put plainly: p300 histone acetyltransferase inhibition. It counts as biochemical. As to conditions: at 100 µM (Figure S3: 30 or 100 µM). Here is the method: Inhibition of DOT1L, LSD1 and p300 was performed using our previously reported methods, [37], [38].
Chain of p300 (Q09472 whole entry, species assumed): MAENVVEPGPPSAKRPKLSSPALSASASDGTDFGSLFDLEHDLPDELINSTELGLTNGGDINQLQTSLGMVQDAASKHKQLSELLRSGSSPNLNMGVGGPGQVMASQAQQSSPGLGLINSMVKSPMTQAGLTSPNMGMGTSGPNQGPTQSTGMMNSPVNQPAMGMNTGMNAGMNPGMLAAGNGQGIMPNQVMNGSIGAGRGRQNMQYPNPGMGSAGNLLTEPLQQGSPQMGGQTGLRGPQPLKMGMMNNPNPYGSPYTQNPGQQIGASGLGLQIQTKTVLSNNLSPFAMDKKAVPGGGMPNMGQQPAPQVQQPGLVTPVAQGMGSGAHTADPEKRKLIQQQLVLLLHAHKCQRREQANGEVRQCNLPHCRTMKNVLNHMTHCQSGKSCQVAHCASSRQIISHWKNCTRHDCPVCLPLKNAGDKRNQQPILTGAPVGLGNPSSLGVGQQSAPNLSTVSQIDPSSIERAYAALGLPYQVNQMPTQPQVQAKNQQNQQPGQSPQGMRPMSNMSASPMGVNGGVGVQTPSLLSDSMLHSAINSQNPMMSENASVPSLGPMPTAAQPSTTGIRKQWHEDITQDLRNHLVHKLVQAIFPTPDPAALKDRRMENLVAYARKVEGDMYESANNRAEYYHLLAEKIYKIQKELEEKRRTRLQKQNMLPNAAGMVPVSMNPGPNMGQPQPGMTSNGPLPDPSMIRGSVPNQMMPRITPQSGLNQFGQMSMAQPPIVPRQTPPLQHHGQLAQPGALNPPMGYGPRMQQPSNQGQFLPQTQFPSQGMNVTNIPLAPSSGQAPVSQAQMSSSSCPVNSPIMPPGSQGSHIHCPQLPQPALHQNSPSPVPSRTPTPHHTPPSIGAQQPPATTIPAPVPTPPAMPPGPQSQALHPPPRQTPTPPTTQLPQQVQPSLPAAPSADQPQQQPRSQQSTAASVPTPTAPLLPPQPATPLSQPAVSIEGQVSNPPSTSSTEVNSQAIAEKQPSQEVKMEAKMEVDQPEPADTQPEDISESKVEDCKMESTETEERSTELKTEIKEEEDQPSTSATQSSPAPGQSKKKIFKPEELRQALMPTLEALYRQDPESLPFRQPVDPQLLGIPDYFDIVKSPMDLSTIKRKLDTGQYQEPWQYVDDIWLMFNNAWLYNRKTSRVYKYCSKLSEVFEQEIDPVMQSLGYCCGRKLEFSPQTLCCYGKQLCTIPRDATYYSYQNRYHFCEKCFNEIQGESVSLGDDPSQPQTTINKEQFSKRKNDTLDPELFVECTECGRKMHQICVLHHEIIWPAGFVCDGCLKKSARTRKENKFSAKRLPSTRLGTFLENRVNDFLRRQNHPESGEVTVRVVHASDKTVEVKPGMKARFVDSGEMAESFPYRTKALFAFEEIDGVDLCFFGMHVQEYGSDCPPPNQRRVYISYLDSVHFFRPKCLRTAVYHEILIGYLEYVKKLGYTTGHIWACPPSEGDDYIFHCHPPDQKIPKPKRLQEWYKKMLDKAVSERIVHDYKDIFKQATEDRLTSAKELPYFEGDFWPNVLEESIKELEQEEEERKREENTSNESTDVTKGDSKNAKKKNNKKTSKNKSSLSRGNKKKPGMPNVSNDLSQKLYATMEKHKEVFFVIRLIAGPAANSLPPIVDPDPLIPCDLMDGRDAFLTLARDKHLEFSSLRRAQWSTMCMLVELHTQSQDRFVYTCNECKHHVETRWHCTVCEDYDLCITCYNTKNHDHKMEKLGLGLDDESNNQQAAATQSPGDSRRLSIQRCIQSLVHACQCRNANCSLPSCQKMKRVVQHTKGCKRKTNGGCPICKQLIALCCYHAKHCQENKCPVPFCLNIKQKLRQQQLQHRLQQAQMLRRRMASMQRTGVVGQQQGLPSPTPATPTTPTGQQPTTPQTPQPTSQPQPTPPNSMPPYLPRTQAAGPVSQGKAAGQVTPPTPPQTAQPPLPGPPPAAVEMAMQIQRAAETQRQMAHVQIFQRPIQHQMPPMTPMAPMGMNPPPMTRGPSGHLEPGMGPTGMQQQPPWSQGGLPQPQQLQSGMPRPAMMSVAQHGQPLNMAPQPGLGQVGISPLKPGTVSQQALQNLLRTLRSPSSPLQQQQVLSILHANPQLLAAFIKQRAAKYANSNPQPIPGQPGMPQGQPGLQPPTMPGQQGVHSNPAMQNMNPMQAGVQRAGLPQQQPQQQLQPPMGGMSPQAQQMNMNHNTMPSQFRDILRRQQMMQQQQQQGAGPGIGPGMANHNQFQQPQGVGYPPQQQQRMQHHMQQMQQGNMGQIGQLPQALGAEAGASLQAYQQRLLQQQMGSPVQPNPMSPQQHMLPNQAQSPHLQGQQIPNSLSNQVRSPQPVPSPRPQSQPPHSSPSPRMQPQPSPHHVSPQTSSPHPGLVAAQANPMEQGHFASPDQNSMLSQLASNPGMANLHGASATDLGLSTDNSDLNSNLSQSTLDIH
LSD1, and p300 histone acetyltransferase at 30 or 100 µM, using our previous reported methods [Ref. 36, 37,
(1 picture or pasted object on this page, not shown here)

For assay [2], the system named is Molm-13 cells. Put plainly: Annexin V apoptosis assay (flow cytometry). It counts as cell-based. Here is the method:
Compound 1 (5 μM for 5 days) induced significant differentiation, with more cell populations expressing CD14 and CD11b, two cell surface proteins for macrophages/monocytes (Figure 5B).
Flow cytometry. […] Apoptosis was determined using the FITC Annexin V Apoptosis Detection Kit I (BD Bioscience) using the manufacturer's protocol. For other FACS assays, cells were labeled with fluorochrome-conjugated monoclonal antibodies against human CD14 and CD11b (BD Biosciences) according to the manufacturer's recommendation. Cells were analyzed using a FACS Calibur (BD Biosciences/Applied Biosystems) and data were processed using the program Flowjo (version7.6.5).
In general terms: In flow cytometry, cells or beads pass a laser one at a time.

Assay [3] concerns the target T1, AF9-AFF4 interaction (Homo sapiens, UniProt P42568).
T1 construct: cDNA for human AF9 AHD domain (475-568) and ENL AHD domain (489-559) was synthesized; made in house; host or cells: E. coli BL21(DE3)
Put plainly: Alpha assay, AF9-AFF4 interaction. Format: binding. The conditions noted are these: read-out: IC50, inhibition of AF9-AFF4 interaction. Here is the method: (§1) ENL is also a major MLL fusion partner (~10%). The AHD domains of human ENL and AF9 share a high homology with 82% identity and 89% similarity (Figure S1A). […] Our attempts to develop an Alpha assay for ENL-DOT1L failed. […] Compound 1's activity against ENL-DOT1L was therefore not determined.
(§2) Alpha assays. Alpha assays were developed using Perkin-Elmer AlphaLisa anti-MBP kit, which contains streptavidin donor beads and anti-MBP acceptor beads. The assay was performed using a MBP-protein (5 nM), a biotinylated peptide (40 nM), and increasing concentrations of a compound in 25 µL buffer (PBS with 0.5 % BSA, pH 7.5) in 384-well plates according to the manufacturer's protocol and measured with a Tecan SPARK microplate reader. Data were imported into Prism (version 5.0), and IC50 values from 3 independent experiments with standard deviation were obtained by using a standard dose-response curve fitting.

The subject of assay [4] is MDA-MB-231 cells. Put plainly: Antiproliferation assay (MTT). It counts as cell-based. The conditions noted are these: Homo sapiens, 168 h, 7-day incubation, read-out: Cytotoxicity EC50. As to the method:
(§3) Antiproliferation assay. Proliferation inhibition assays for suspension blood cancer cells were performed using an XTT assay kit (Roche). Proliferation inhibition assays for solid tumor cell lines MCF-7, MDA-MB-231, Panc1, Panc28 were performed using an MTT assay (Sigma). The antiproliferation EC50 values were determined using Prism 5 and the reported results were the mean values of at least three independent experiments. The incubation time for compound 1 was 7 days and that for EPZ4777 was 14 days.

For assay [5], the system named is MCF-7 cells. Briefly: Antiproliferation assay (MTT). Format: cell-based. As to conditions: Homo sapiens, MCF7, 168 h, 7-day incubation, read-out: Cytotoxicity EC50. As to the method: as §3
Assay [6] concerns Panc-1 cells. Briefly: Antiproliferation assay (MTT). The conditions noted are these: Homo sapiens, 168 h, 7-day incubation, read-out: Cytotoxicity EC50. It counts as cell-based. As to the method: as §3
For assay [7], the system named is Panc-28 cells. Briefly: Antiproliferation assay (MTT). It counts as cell-based. The conditions noted are these: 168 h, 7-day incubation, read-out: Cytotoxicity EC50. As to the method: as §3
For assay [8], the system named is MV4;11 leukemia xenograft. Briefly: Subcutaneous MV4;11 xenograft antitumor study. Format: in vivo, NOD-SCID mice. As to conditions: 15 mg/kg/day i.p. for 10 days; two cohorts (N = 6 and 8; p < 0.01 and 0.05). As to the method: In vivo antitumor activity of compound 1 was evaluated in a commonly used mouse model of MLL-r leukemia, [26]. 10^7 MV4;11 cells in 0.1 mL of saline and Matrigel (1:1) were injected subcutaneously into NOD-SCID mice, which can develop palpable tumors in ~2 weeks.
In vivo antitumor studies. All of the mouse studies were conducted in strict compliance with an IRB-approved protocol. NOD-SCID mice (4 to 6 weeks old, from Jackson lab) were obtained and maintained under specific pathogen-free conditions. 10^7 MV4;11 cells in medical grade saline and Matrigel (1:1, 0.1 mL) were inoculated subcutaneously and palpable tumors (2-3 mm in diameter) were developed in ~ 2 weeks. Mice were treated with compound 1 (15 mg/kg/day for 10 days) in saline (0.1 mL) administered intraperitoneally. Tumors were measured every 2 days and estimated by using the formula a×b^2/2.

Assay [9] concerns HoxA9, Meis1 and Myc expression in MV4;11 cells. Put plainly: qPCR of MLL target genes. The conditions noted are these: 4 days. It counts as cell-based. As to the method: (§4) Next, compound 1 was tested for its ability to change expression of characteristic MLL-r leukemia genes HoxA9, Meis1 and Myc. Myc is also overexpressed in a broad range of AML and other cancers. […] (Figure S5), presumably because SEC is not recruited there.
(§5) RNA extraction and Quantitative real-time PCR (qPCR). 10^5 cells/ml were incubated with a compound for 4 days and the RNA was extracted using RNeasy mini kit (#74104, Qiagen). 100-1000 ng of total RNA was reverse transcribed using iScript™ Reverse Transcription Supermix (Bio-Rad) using the manufacturer's protocol. Quantitative real-time PCR was carried out using Fast SYBR Green Master Mix (Applied Biosystems) according to the manufacturer's instructions. Measurements were performed in triplicate, using GAPDH as the reference gene. Real-time PCR was performed using Biosystems Step One Plus detection system. The following sequences of primers are used: […]
In general terms: Real-time PCR tracks product formation cycle by cycle.

Assay [10] deals with HoxA9, Meis1 and Myc expression in Molm-13 cells. Put plainly: qPCR of MLL target genes. The conditions noted are these: 4 days. It counts as cell-based. As to the method: as §4, §5
The target of assay [11] is T2, AF9-AF4 interaction (Homo sapiens, UniProt P42568).
T2 construct: cDNA for human AF9 AHD domain (475-568) and ENL AHD domain (489-559) was synthesized; made in house; host or cells: E. coli BL21(DE3)
Briefly: Alpha assay, AF9-AF4 interaction. It counts as binding. As to conditions: read-out: IC50, inhibition of AF9-AF4 interaction. As to the method: as §1, §2

In assay [12] the target is T3, AF9-DOT1L interaction (Homo sapiens, UniProt P42568).
T3 construct: cDNA for human AF9 AHD domain (475-568) and ENL AHD domain (489-559) was synthesized; made in house; host or cells: E. coli BL21(DE3)
T3 sequence (P42568 475-568): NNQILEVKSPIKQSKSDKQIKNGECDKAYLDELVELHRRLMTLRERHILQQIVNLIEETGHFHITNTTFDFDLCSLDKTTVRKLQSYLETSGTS
Put plainly: Alpha assay, AF9 AHD-DOT1L peptide interaction. It counts as binding. The conditions noted are these: read-out: IC50, inhibition of AF9-DOT1L interaction.
From the text: We developed an Alpha (amplified luminescent proximity homogeneous assay) assay to determine the binding and inhibition of the PPI between maltose-binding protein (MBP)-tagged AF9 AHD and a biotin-labeled DOT1L peptide, using AlphaLisa streptavidin donor beads and anti-MBP acceptor beads. Laser excitation to the donor beads generates singlet oxygen radicals, which can travel for <200 nm in solution and cannot reach the free acceptor beads. The PPI brings the DOT1L coated donor beads and AHD coated acceptor beads together, allowing the radicals to activate the acceptor beads and produce luminescence. […] We also developed a fluorescence polarization (FP) assay. A fluorescein-labeled DOT1L peptide has a higher freedom in solution with a lower polarization value.
as §2

Some results are limits rather than exact numbers.

Broadly, the IC50 is the concentration that inhibits the measured activity by half. A word on the EC50: it is the concentration needed to bring the measured effect to its halfway point.

As for `CC(C)(C)c1ccc(-n2cc(C(=O)NC3CCNCC3)nc2-c2ccccc2)cc1` [Compound 1], the “Inhibition of p300 histone acetyltransferase activity” value in [1] is “did not significantly inhibit”. For the same compound, the Apoptosis entry is on record as “did not cause significant apoptosis” in assay [2] (5 µM, 5-day incubation); 44.2% in assay [2] (10 µM, 5 days); 73.6% in [2] (15 µM, 5 days); < 5% in assay [2] (short-term 2- or 3-day incubation). For the same compound, the IC50 stood at 2.5 ± 0.1 µM in assay [3], 1.5 ± 0.2 µM in assay [11] and 3.5 µM in assay [12]. In addition, the EC50 in assay [4] worked out at 13.5 ± 0.2 µM; in assay [5], 19.8 ± 0.3 µM; in assay [6] it was 15.1 ± 0.2 µM; in [7], 23.8 ± 0.2 µM. The Tumor growth result in assay [8] is “significantly inhibited tumor growth”. In addition, the “Expression of MLL target genes HoxA9, Meis1 and Myc” value in assay [9] and in assay [10] was “dose-dependently suppressed expression” each time.
